The text below walks through data of patent US5134073A, “Microbiologically produced N-acetyl-2,3-didehydroleucine acylase” (Degussa Aktiengesellschaft, priority 1989, dated 1992).

Several values for one entry are separate records, joined by “and”; a condition that tells them apart may be missing. Equal values may be shown once.

As usually defined, the Km is the concentration of substrate that gives half-maximal velocity.

Assay [1] deals with Zoogloea ramigera ABI 1. Nature of the assay: Induction of N-acetyldehydroleucine acylase in agitated cultures, changing of the inductor. The assay is classed as cell-based. The note with it: inductor 3 g/l; for Acylase activity after 60 hours of incubation as a function of the inductor: agitated culture, pH 7. The protocol:
All raw extracts were tested at least with N-acetyldehydroleucine and N-acetyldehydroisoleucine but, in most cases, also with N-acetyldehydrovaline. […] The enzymatic reaction was stopped in the batches incubated at 30° C. by adding 0.25 ml color reagent (1 g/l 2,4-dinitrophenyl hydrazine in 2 N HCl). After further incubation at 30° C. for 10 minutes with N-acetyldehydroleucine as substrate or 25 minutes with the isoleucine or valine derivative, 1.5 ml 2,5 N NaOH was added.
The keto acid released by the enzymatic hydrolysis forms, together with the 2,4-dinitrophenyl hydrazine, a Schiff's base colored red in the alkaline whose absorption was measured in a spectral photometer at 442 nm against a batch without N-acetyldehydroamino acid (=enzyme blank). A blank reading was deducted from these extinction values which blank reading is obtained if the extinction value of a batch only with buffer (=buffer blank) is deducted from that of a batch with buffer and N-acetyldehydroamino acid but without raw extract (=substrate blank). The concentration of the product produced was determined with a calibrated reference for the corresponding keto acid. The enzyme activity is indicated in international units. One unit (U) corresponds to an amount of 1 μmole released keto acid per minute.
Different substances were added in a concentration of 3 g/l as inductors into agitated cultures with a medium of mineral salt solution (cf. Example 1) with 0.5 g/l yeast extract and 0.5 g/l peptone at pH 7. The technology for agitated cultures is described in Example 1 a).

For assay [2], the system named is N-acetyldehydroleucine acylase. Nature of the assay: Acylase activity versus concentration of N-acetyldehydroamino acids (kinetic data). The assay is classed as biochemical, Zoogloea ramigera. The protocol: The activity of the acylase was determined under standard conditions (cf. Example 8a)) with various N-acetyldehydroamino acids in concentrations of 0.1 to 300 mM. A second series of measurements with N-acetyldehydroleucinein the above-indicated concentration range was placed in 0.1 M tris/phosphoric acid buffer.
Reaction conditions: 0.1 M glycine, pH 9, 30° C.
Adaptation to the equation v = Vmax. · S/(KM + S +

Assay [3] concerns N-acetyldehydroleucine acylase. Nature of the assay: Hydrolysis of other compounds by the acylase (TLC / amino acid analyzer). Type of assay: biochemical, Zoogloea ramigera. The method, then:
A qualitative check was performed for 81 compounds to see whether they are accepted as substrate by the acylase. The test batches contained:
After 16 and 40 hours incubation at 25° C., specimens were taken from the batches, most of which specimens were analyzed in comparison to substrate standards by means of thin-layer chromatography (70% (v/v) ethanol as mobile solvent). The detection took place with ninhydrin spray reagent. A few specimens were tested in addition or alternatively with the amino acid analyzer.
The amino acids produced from the amino acid amides by means of the action of acylase were detected quantitatively with the amino acid analyzer.

The test system of assay [4] is N-acetyldehydroleucine acylase. Nature of the assay: Hydrolysis of hydantoins by the acylase. The assay is classed as biochemical, Zoogloea ramigera. The note with it: 25 mM substrate, 1 U/ml acylase, tris/phosphoric acid pH 9, 11.5 hours at 30° C.; ADL = 100%. The method, then:
The test batches for the hydrolysis of hydantoins had the following composition:
25 mM substrate or buffer
50 mM tris/phosphoric acid buffer
Isopropylhydantoin, hydantoic acid and dihydrouracil were used as substrates. After 11.5 hours at 30° C., 175 μl 12% (w/v) trichloroacetic acid and 25 μl analytical reagent (10 % (w/v) […] in 6 N HCl) were added, precipitated protein centrifuged off in an Eppendorf table centrifuge and the absorption in the supernatants measured at 450 nm.

The test system of assay [5] is ADL acylase. Nature of the assay: Influence of glycine on the reaction rate. The assay is classed as biochemical, Zoogloea ramigera. The protocol: The reaction of glycine in 0 to 1.2 molar concentration dissolved in 0.1 M tris/HCl buffer was determined under standard conditions (example 8a).

In the case of `CC(=O)NC(Cc1ccccc1)C(=O)O` (racemic) [Ac-D,L-phenylalanine], the “Acylase activity after 60 hours of incubation as a function of the inductor” value (“Acylase activity after 60 hours” for short) in assay [1] was 0.031 U/mg.

As for `CC(=O)NC(Cc1c[nH]c2ccccc12)C(=O)O` (racemic) [Ac-D,L-tryptophan], the “Acylase activity after 60 hours” value in assay [1] is 0.018 U/mg.

With `CC(=O)NC(Cc1ccc(O)cc1)C(=O)O` (racemic) [Ac-D,L-tyrosine], the “Acylase activity after 60 hours” value in assay [1] came to 0.011 U/mg.

`CC(=O)NC(C(=O)O)C(C)C` (racemic) [Ac-D,L-valine]: the “Acylase activity after 60 hours” value in assay [1] amounted to 0.031 U/mg.

As to `CC(=O)NC(=Cc1ccccc1)C(=O)O` [ACA, 2-acetylamino cinnamic acid], in assay [1], the “Induction capacity” value is on record as “only slightly active” and the “Acylase activity after 60 hours” value is recorded as 0.016 U/mg. In addition, in assay [2] (glycine, 0.1 M, pH 9, 30° C.), the “% Vmax” value is 46% and the Km came out at 2.62 mM. Further, in assay [3], the “Substrate specificity: hydrolysis by the acylase” value (“Substrate specificity: hydrolysis” for short) is given as “hydrolyzes”.

For `CCC(C)=C(NC(C)=O)C(=O)O` [ADI, N-acetyl-2,3-didehydroisoleucine], the “Acylase activity after 60 hours” value in assay [1] came out at 0.172 U/mg. In assay [2] (glycine, 0.1 M, pH 9, 30° C.), the “% Vmax” value is 14% and the Km stood at 5.77 mM. Besides, in assay [3], the “Substrate specificity: hydrolysis” value was “hydrolyzes”.

As for `CC(=O)NC(=CC(C)C)C(=O)O` [ADL, N-acetyl-2,3-didehydroleucine], in assay [1], the “Induction capacity” value is “highest induction capacity” and the “Acylase activity after 60 hours” value was 0.222 U/mg. In assay [2] (glycine, 0.1 M, pH 9, 30° C.), the “% Vmax” value was found to be 100%; the Km was 4.5 mM and 4.53 mM. Besides, in assay [2] (glycine, 0.1 M, pH 9, 30° C., listed as N-acetyl-2,3-didehydroleucine), the Km was found to be 4.5 mM. Besides, in assay [2] (tris-phosphoric acid 0.1 M), the “% Vmax” value is reported as 62% and the Km was 7.01 mM. For the same compound, the “rel. activity (%)” value in assay [3] (50 mM test substrate, 0.1 M tris/HCl pH 9, 25° C., hydrolysis rate with N-acetyldehydroleucine = 100%) came out at 100.0%.

For `CC(=O)NC(C(=O)O)=C(C)C` [ADV, N-acetyl-2,3-didehydrovaline], in assay [1], the “Acylase activity after 60 hours” value turned out to be 0.121 U/mg. In assay [2] (glycine, 0.1 M, pH 9, 30° C.), the “% Vmax” value came out at 23% and the Michaelis constant (Km) is 20.9 mM. Also, the “Substrate specificity: hydrolysis” value in assay [3] is “hydrolyzes”.

For `CC[C@H](C)[C@H](NC(C)=O)C(=O)O` [Ac-L-isoleucine], the “Acylase activity after 60 hours” value in assay [1] stood at 0.039 U/mg.

Consider `CC(=O)N[C@@H](CC(C)C)C(=O)O` [Ac-L-leucine, N-acetyl-L-leucine], for which, in assay [1], the “Acylase activity after 60 hours” value stood at 0.018 U/mg.

With `O=C1CCNC(=O)N1` [Dihydrouracil], in assay [4], the “rel. activity (%)” value is listed as 0%.

For `NCC(=O)O` [Glycine, glycine], the “Influence of activators on substrate splitting” value in assay [5] is listed as “accelerates the substrate splitting as a function of the concentration”. Also, the EC50 in assay [5] (0.1 M tris/HCl buffer, calculation according to Ingami and Murachi, read-out: Glycine concentration necessary for one-half the maximum reaction acceleration) was 90 mM.

With `CC(C)C1NC(=O)NC1=O` (stereo not shown) [Isopropy hydantoin], in assay [4], the “rel. activity (%)” value is 0%.
